Laboratory results reported in ChEMBL document CHEMBL4033723, “Succinamide derivatives of melampomagnolide B and their anti-cancer activities” (2017).

Tests used:
Format in all cases: functional
CCRF-CEM = experiment: Growth inhibition of human CCRF-CEM cells after 48 hrs by sulforhodamine B assay
HL-60(TB) = experiment: Growth inhibition of human HL-60(TB) cells after 48 hrs by sulforhodamine B assay; settings: HL-60, 48 h
K562 = experiment: Growth inhibition of human K562 cells after 48 hrs by sulforhodamine B assay; settings: K562, 48 h
MOLT-4 = experiment: Growth inhibition of human MOLT4 cells after 48 hrs by sulforhodamine B assay; settings: MOLT-4, 48 h
RPMI-8226 = experiment: Growth inhibition of human RPMI8226 cells after 48 hrs by sulforhodamine B assay; settings: RPMI-8226, 48 h
SR = experiment: Growth inhibition of human SR cells after 48 hrs by sulforhodamine B assay
A549 = experiment: Growth inhibition of human A549/ATCC cells after 48 hrs by sulforhodamine B assay; settings: A549, 48 h
HOP-92 = experiment: Growth inhibition of human HOP92 cells after 48 hrs by sulforhodamine B assay; settings: HOP-92, 48 h
NCI-H226 = experiment: Growth inhibition of human NCI-H226 cells after 48 hrs by sulforhodamine B assay; settings: NCI-H226, 48 h
NCI-H23 = experiment: Growth inhibition of human NCI-H23 cells after 48 hrs by sulforhodamine B assay; settings: NCI-H23, 48 h
NCI-H322M = experiment: Growth inhibition of human NCI-H322M cells after 48 hrs by sulforhodamine B assay
NCI-H460 = experiment: Growth inhibition of human NCI-H460 cells after 48 hrs by sulforhodamine B assay; settings: NCI-H460, 48 h
NCI-H522 = experiment: Growth inhibition of human NCI-H522 cells after 48 hrs by sulforhodamine B assay; settings: NCI-H522, 48 h
COLO 205 = experiment: Growth inhibition of human COLO205 cells after 48 hrs by sulforhodamine B assay; settings: COLO 205, 48 h
HCC 2998 = experiment: Growth inhibition of human HCC2998 cells after 48 hrs by sulforhodamine B assay; settings: HCC 2998, 48 h
HCT-116 = experiment: Growth inhibition of human HCT116 cells after 48 hrs by sulforhodamine B assay; settings: HCT-116, 48 h
HCT-15 = experiment: Growth inhibition of human HCT15 cells after 48 hrs by sulforhodamine B assay; settings: HCT-15, 48 h
HT-29 = experiment: Growth inhibition of human HT-29 cells after 48 hrs by sulforhodamine B assay; settings: HT-29, 48 h
KM12 = experiment: Growth inhibition of human KM12 cells after 48 hrs by sulforhodamine B assay; settings: KM12, 48 h
SW-620 = experiment: Growth inhibition of human SW620 cells after 48 hrs by sulforhodamine B assay; settings: SW-620, 48 h
SF-268 = experiment: Growth inhibition of human SF268 cells after 48 hrs by sulforhodamine B assay; settings: SF-268, 48 h
SF-295 = experiment: Growth inhibition of human SF295 cells after 48 hrs by sulforhodamine B assay; settings: SF-295, 48 h
SF-539 = experiment: Growth inhibition of human SF539 cells after 48 hrs by sulforhodamine B assay; settings: SF-539, 48 h
SNB-19 = experiment: Growth inhibition of human SNB19 cells after 48 hrs by sulforhodamine B assay; settings: SNB-19, 48 h
SNB-75 = experiment: Growth inhibition of human SNB75 cells after 48 hrs by sulforhodamine B assay; settings: SNB-75, 48 h
U-251 = experiment: Growth inhibition of human U251 cells after 48 hrs by sulforhodamine B assay; settings: U-251, 48 h
LOX IMVI = experiment: Growth inhibition of human LOXIMVI cells after 48 hrs by sulforhodamine B assay
Malme-3M = experiment: Growth inhibition of human MALME-3M cells after 48 hrs by sulforhodamine B assay
M14 = experiment: Growth inhibition of human M14 cells after 48 hrs by sulforhodamine B assay; settings: M14, 48 h
MDA-MB-435 = experiment: Growth inhibition of human MDA-MB-435 cells after 48 hrs by sulforhodamine B assay; settings: MDA-MB-435, 48 h
SK-MEL-2 = experiment: Growth inhibition of human SK-MEL-2 cells after 48 hrs by sulforhodamine B assay; settings: SK-MEL-2, 48 h
SK-MEL-28 = experiment: Growth inhibition of human SK-MEL-28 cells after 48 hrs by sulforhodamine B assay; settings: SK-MEL-28, 48 h
SK-MEL-5 = experiment: Growth inhibition of human SK-MEL-5 cells after 48 hrs by sulforhodamine B assay; settings: SK-MEL-5, 48 h
UACC-257 = experiment: Growth inhibition of human UACC257 cells after 48 hrs by sulforhodamine B assay; settings: UACC-257, 48 h
UACC-62 = experiment: Growth inhibition of human UACC62 cells after 48 hrs by sulforhodamine B assay; settings: UACC-62, 48 h
OVCAR-3 = experiment: Growth inhibition of human OVCAR3 cells after 48 hrs by sulforhodamine B assay; settings: OVCAR-3, 48 h
OVCAR-4 = experiment: Growth inhibition of human OVCAR4 cells after 48 hrs by sulforhodamine B assay; settings: OVCAR-4, 48 h
OVCAR-5 = experiment: Growth inhibition of human OVCAR5 cells after 48 hrs by sulforhodamine B assay; settings: OVCAR-5, 48 h
OVCAR-8 = experiment: Growth inhibition of human OVCAR8 cells after 48 hrs by sulforhodamine B assay; settings: OVCAR-8, 48 h
NCI/ADR-RES = experiment: Growth inhibition of human NCI-ADR-RES cells after 48 hrs by sulforhodamine B assay
SK-OV-3 = experiment: Growth inhibition of human SKOV3 cells after 48 hrs by sulforhodamine B assay; settings: SK-OV-3, 48 h
786-0 = experiment: Growth inhibition of human 786-0 cells after 48 hrs by sulforhodamine B assay; settings: 786-0, 48 h
A498 = experiment: Growth inhibition of human A498 cells after 48 hrs by sulforhodamine B assay; settings: A498, 48 h
ACHN = experiment: Growth inhibition of human ACHN cells after 48 hrs by sulforhodamine B assay
CAKI-1 = experiment: Growth inhibition of human Caki1 cells after 48 hrs by sulforhodamine B assay; settings: CAKI-1, 48 h
RXF 393 = experiment: Growth inhibition of human RXF393 cells after 48 hrs by sulforhodamine B assay; settings: RXF 393, 48 h
SN12C = experiment: Growth inhibition of human SN12C cells after 48 hrs by sulforhodamine B assay
TK-10 = experiment: Growth inhibition of human TK10 cells after 48 hrs by sulforhodamine B assay; settings: TK-10, 48 h
UO-31 = experiment: Growth inhibition of human UO31 cells after 48 hrs by sulforhodamine B assay; settings: UO-31, 48 h
PC-3 = experiment: Growth inhibition of human PC3 cells after 48 hrs by sulforhodamine B assay; settings: PC-3, 48 h
DU-145 = experiment: Growth inhibition of human DU145 cells after 48 hrs by sulforhodamine B assay; settings: DU-145, 48 h
MCF7 = experiment: Growth inhibition of human MCF7 cells after 48 hrs by sulforhodamine B assay; settings: MCF7, 48 h
MDA-MB-231 = experiment: Growth inhibition of human MDA-MB-231 cells after 48 hrs by sulforhodamine B assay; settings: MDA-MB-231, 48 h
Hs-578T = experiment: Growth inhibition of human Hs 578T cells after 48 hrs by sulforhodamine B assay
BT-549 = experiment: Growth inhibition of human BT549 cells after 48 hrs by sulforhodamine B assay; settings: BT-549, 48 h
T47D = experiment: Growth inhibition of human T47D cells after 48 hrs by sulforhodamine B assay
MDA-MB-468 = experiment: Growth inhibition of human MDA-MB-468 cells after 48 hrs by sulforhodamine B assay; settings: MDA-MB-468, 48 h
[1] = Growth inhibition of human M9-ENL1 cells after 24 hrs by trypan blue assay; settings: M9-ENL1, 24 h
[2] = Induction of apoptosis in human M9-ENL1 cells assessed as cell death after 24 hrs by Annexin V/PI or 7-AAD staining based flow cytometry; settings: M9-ENL1, 24 h, read-out: LC50 (the source's name)
[3] = Potency index, ratio of compound effect to PTL effect for cytotoxicity against human M9-ENL1 cells

`C=C1C(=O)O[C@H]2[C@H]1CC/C(COC(=O)CCC(=O)N1CCC(C)CC1)=C\CC[C@@]1(C)O[C@@H]21` showed a GI50 (CCRF-CEM) of 1.4 µM, a GI50 (HL-60(TB)) of 3.16 µM and a GI50 (K562) of 3.06 µM. The GI50 (MOLT-4) was 3.33 µM, the GI50 (RPMI-8226) was 4.74 µM and the GI50 (SR) was 2.72 µM. The GI50 (A549) was 15.8 µM, the GI50 (HOP-92) was 2.05 µM and the GI50 (NCI-H226) was 3.51 µM. The GI50 (NCI-H23) was 5.24 µM, the GI50 (NCI-H322M) was 17.6 µM and the GI50 (NCI-H460) was 16 µM. It also gave a GI50 (NCI-H522) of 1.5 µM, a GI50 (COLO 205) of 2.94 µM and a GI50 (HCC 2998) of 11.5 µM. For the same compound, the GI50 (HCT-116) was 1.69 µM, the GI50 (HCT-15) was 1.7 µM and the GI50 (HT-29) was 4.28 µM. For the same compound, the GI50 (KM12) was 12.1 µM, the GI50 (SW-620) was 2.33 µM and the GI50 (SF-268) was 13.2 µM. For the same compound, the GI50 (SF-295) was 14.7 µM, the GI50 (SF-539) was 2.35 µM and the GI50 (SNB-19) was 14 µM. The GI50 (SNB-75) was 11.2 µM, the GI50 (U-251) was 16.7 µM and the GI50 (LOX IMVI) was 2.95 µM. The GI50 (Malme-3M) was 2.95 µM, the GI50 (M14) was 3.44 µM and the GI50 (MDA-MB-435) was 4.84 µM. It also gave a GI50 (SK-MEL-2) of 13.1 µM, a GI50 (SK-MEL-28) of 3.1 µM and a GI50 (SK-MEL-5) of 7.17 µM. It also gave a GI50 (UACC-257) of 3.57 µM, a GI50 (UACC-62) of 5.15 µM and a GI50 (OVCAR-3) of 4.32 µM. The GI50 (OVCAR-4) was 2.64 µM, the GI50 (OVCAR-5) was 6.36 µM and the GI50 (OVCAR-8) was 3.37 µM. The GI50 (NCI/ADR-RES) was 13.1 µM, the GI50 (SK-OV-3) was 26.8 µM and the GI50 (786-0) was 6.64 µM. The GI50 (A498) was 2.77 µM, the GI50 (ACHN) was 2.64 µM and the GI50 (CAKI-1) was 2.83 µM. For the same compound, the GI50 (RXF 393) was 1.91 µM, the GI50 (SN12C) was 4.8 µM and the GI50 (TK-10) was 3.9 µM. It also gave a GI50 (UO-31) of 3.56 µM, a GI50 (PC-3) of 13 µM and a GI50 (DU-145) of 4.44 µM. The GI50 (MCF7) was 2.22 µM, the GI50 (MDA-MB-231) was 7.13 µM and the GI50 (Hs-578T) was 20.4 µM. For the same compound, the GI50 (BT-549) was 1.82 µM, the GI50 (T47D) was 5.45 µM and the GI50 (MDA-MB-468) was 1.06 µM. For the same compound, the GI50 [1] was 3.1 µM, the CC50 [2] was 4.1 µM and the “fold change (FC)” value [3] was 2.
